For one data set, the system named is E. coli P-5101. Description: In vitro antibacterial activity, twofold agar-dilution MIC. In kind it is cell-based. The settings on record: Escherichia coli, P5101; E. coli P-5101, Gram -; calculated for free base; 20-hour incubation at 37° C; read-out: minimum inhibitory concentration (MIC). The method, then: (§1) The antibacterial activity in vitro is show in Table 1. The numbers in the table show minimum inhibitory concentrations (MIC) (μg/ml), calculated for free base. The minimum inhibitory concentration was determined by the twofold agar-dilution method, which was recommended by Japan Society of Chemotherapy (Chemotherapy, 29(1), 76(1981)), using Muller-Hinton agar. One loopful of an overnight culture of test organisms in Mueller-Hinton broth was inoculated onto 10-ml drug-containing agar layers in petri dishes. Bacterial inocula contained approximately 10^6 colonyl-formingunits. Bacterial growth was observed after 20-hour incubation at 37° C. The MIC was defined as the lowest drug concentration which prevented visible bacterial growth.

A further data set has as its system E. coli P-51208. The data set is described as above. The conditions noted are these: Escherichia coli, P51208; E. coli P-51208, Gram -; calculated for free base; 20-hour incubation at 37° C; read-out: minimum inhibitory concentration (MIC). In kind it is cell-based. As to the method:
as §1

Another data set relates to E. coli P-51209. The data set is described as above. In kind it is cell-based. The settings on record: Escherichia coli, P51209; E. coli P-51209, Gram -; calculated for free base; 20-hour incubation at 37° C; read-out: minimum inhibitory concentration (MIC). As to the method:
as §1

For a further data set, the system named is K. pneumoniae 13. The data set is described as above. The class given is cell-based. The conditions noted are these: Klebsiella pneumoniae; K. pneumoniae 13, Gram -; calculated for free base; 20-hour incubation at 37° C; read-out: minimum inhibitory concentration (MIC). As to the method:
as §1

The next data set relates to M. lacunata P-7102. Described as above. In kind it is cell-based. The settings on record: M. lacunata P-7102, Gram -; calculated for free base; 20-hour incubation at 37° C; read-out: minimum inhibitory concentration (MIC). The method, then: as §1
The next data set has as its system P. rettgeri IFO 3850. Described as above. In kind it is cell-based. The settings on record: Providencia rettgeri, IFO3850; P. rettgeri IFO 3850, Gram -; calculated for free base; 20-hour incubation at 37° C; read-out: minimum inhibitory concentration (MIC). As to the method:
as §1

In a further data set the test system is S. aureus 50774. Described as above. In kind it is cell-based. The conditions noted are these: Staphylococcus aureus; S. aureus 50774, Gram +; calculated for free base; 20-hour incubation at 37° C; read-out: minimum inhibitory concentration (MIC). The method, then:
as §1

Another data set has as its system S. aureus 80. The data set is described as above. In kind it is cell-based. The settings on record: Staphylococcus aureus; S. aureus 80, Gram +; calculated for free base; 20-hour incubation at 37° C; read-out: minimum inhibitory concentration (MIC). As to the method: as §1
The test system of the next data set is S. aureus Smith. The data set is described as above. The class given is cell-based. The settings on record: Staphylococcus aureus, Gram +, calculated for free base, 20-hour incubation at 37° C, read-out: minimum inhibitory concentration (MIC). As to the method: as §1
The test system of another data set is S. epidermidis 8. Described as above. The class given is cell-based. The conditions noted are these: Staphylococcus epidermidis; S. epidermidis 8, Gram +; calculated for free base; 20-hour incubation at 37° C; read-out: minimum inhibitory concentration (MIC). The method, then: as §1
The next data set relates to S. pyogenes A65. Described as above. The conditions noted are these: Streptococcus pyogenes; S. pyogenes A65, Gram +; calculated for free base; 20-hour incubation at 37° C; read-out: minimum inhibitory concentration (MIC). In kind it is cell-based. The method, then:
as §1

Another data set can be described thus: Solubility in water. The class given is physicochemical. The conditions noted are these: distilled water, 25° C overnight. The method, then: The sample was added to distilled water (10 ml) and the solution was shaken in the supersaturated state for 30 minutes. After incubation at 25° C. overnight, the solution was filtered with a microfilter. The filtrate was diluted with 0.1 N hydrochloric acid. The absorbance at 270 nm of the solution was measured and the concentration (μg/ml) of the sample was calculated from a calibration curve separately prepared.

Data set [1] has as its system Staphylococcus aureus 50774. Kind of data set: In vivo efficacy against systemic infection in mice, S. aureus 50774. The conditions noted are these: Staphylococcus aureus, 50774, 336 h, iv infection 5×10^8 cells, drug iv twice, immediately and 6 hours after infection, 14 days observation, calculated for free base, read-out: median effective dose (ED50). Further details: species or system mice (ddY-S). As to the method: (§2) Compounds were each dissolved in deionized water. Each of the solutions was intravenously (iv) administered to mice infected by each of the test organisms under the conditions shown hereinbelow, and the median effective dose (ED50) was calculated by probit analysis. The numerals in the table show ED50 (mg/kg) value, caluclated for free base. Experimental conditions: Mice: Male mice (ddY-S) weighing about 20 g Infection: Staphylococcus aureus 50774 Intravenous infection with 5×10^8 cells per mouse suspended in saline. Medication: Twice, immediately and 6 hours after infection. Observation: For 14 days in the case of Staphylococcus aureus 50774. For 7 days in the case of Streptococcus pyogenes […].

Data set [2] has as its system Streptococcus pyogenes A65. Description: In vivo efficacy against systemic infection in mice, S. pyogenes A65. Further details: species or system mice (ddY-S). The conditions noted are these: A65, 168 h, intraperitoneal infection 3×10^7 cells, drug iv twice, immediately and 6 hours after infection, 7 days observation, calculated for free base, read-out: median effective dose (ED50). As to the method: as §2, with “Streptococcus pyogenes […] Intraperitoneal” for “Staphylococcus aureus 50774 Intravenous”, “3×10^7” for “5×10^8”, “brain heart infusion broth.” for “saline.”

Values after ≈ are worked out from the molar mass of the structure shown.

As to `Cl.NC[C@@H]1CN(c2nc3c(cc2F)c(=O)c(C(=O)O)cn3C2CC2)C[C@H]1F` (relative stereo) [Compound No. 1-trans.HCl, 7-(trans-3-aminomethyl-4-fluoro-1-pyrrolidinyl)-1-cyclopropyl-6-fluoro-1,4-dihydro-4-oxo-1,8-naphthyridine-3carboxylic acid hydrochloride], the MIC was 0.0063 µg/mL in the data set on E. coli P-5101; 0.78 µg/mL in the data set on E. coli P-51208; 0.78 µg/mL in the data set with E. coli P-51209; 0.05 µg/mL in the data set on K. pneumoniae 13; 3.13 µg/mL in the data set on M. lacunata P-7102; 0.05 µg/mL with P. rettgeri IFO 3850. Also, the MIC in the data set on S. aureus 50774 is 0.025 µg/mL; in the data set on S. aureus 80 it was 0.025 µg/mL; in the data set on S. aureus Smith, 0.025 µg/mL; in the data set with S. epidermidis 8, 0.0125 µg/mL; in the data set on S. pyogenes A65, 0.025 µg/mL.

The term solubility denotes how much of the substance goes into solution per volume. Consider `NC[C@@H]1CN(c2nc3c(cc2F)c(=O)c(C(=O)O)cn3C2CC2)C[C@@H]1Cl` (relative stereo) [Compound No. 2-cis, 7-(cis-3-aminomethyl-4-chloro-1-pyrrolidinyl)-1-cyclopropyl-6-fluoro-1,4-dihydro-4-oxo-1,8-naphthyridine-3-carboxylic acid], for which the solubility in “Solubility in water” turned out to be 713 µg/mL (≈ 1870 µM).

The compound `NC[C@@H]1CN(c2nc3c(cc2F)c(=O)c(C(=O)O)cn3C2CC2)C[C@@H]1F` (relative stereo) [Compound No. 1-cis, 7-(cis-3-aminomethyl-4-fluoro-1-pyrrolidinyl)-1-cyclopropyl-6-fluoro-1,4-dihydro-4-oxo-1,8-naphthyridine-3-carboxylic acid] came in with a solubility in “Solubility in water” of 927 µg/mL (≈ 2540 µM).

One may read the ED50 as the dose at which the effect has come halfway, by size or by number of responders. As to `Cl.NC[C@@H]1CN(c2nc3c(cc2F)c(=O)c(C(=O)O)cn3C2CC2)C[C@@H]1Cl` (relative stereo) [2-cis.HCl, 7-(cis-3-aminomethyl-4-chloro-1-pyrrolidinyl)-1-cyclopropyl6-fluoro-1,4-dihydro-4-oxo-1,8-naphthyridine-3-carboxylic acid hydrochloride], the MIC is 0.0125 µg/mL with E. coli P-5101; 0.78 µg/mL in the data set with E. coli P-51208; 0.78 µg/mL with E. coli P-51209; 0.05 µg/mL in the data set with K. pneumoniae 13; 3.13 µg/mL in the data set on M. lacunata P-7102; 0.05 µg/mL in the data set on P. rettgeri IFO 3850. Also, the MIC was 0.025 µg/mL with S. aureus 50774; 0.0125 µg/mL in the data set on S. aureus 80; 0.025 µg/mL in the data set on S. aureus Smith; 0.0125 µg/mL in the data set with S. epidermidis 8; 0.025 µg/mL with S. pyogenes A65. Besides, the ED50 was 0.355 mg/kg in [1] and 0.235 mg/kg in data set [2].

For the compound `CCNC[C@@H]1CN(c2nc3c(cc2F)c(=O)c(C(=O)O)cn3C2CC2)C[C@H]1F.Cl` (relative stereo) [4-trans.HCl, 1-cyclopropyl-7-(trans-3-ethylaminomethyl-4-fluoro-1-pyrrolidinyl)-6-fluoro-1,4-dihydro-4-oxo-1,8-naphthyridine-3-carboxylic acid hydrochloride], the MIC in the data set with E. coli P-5101 is 0.0125 µg/mL; in the data set on E. coli P-51208, 0.78 µg/mL; in the data set on E. coli P-51209, 0.78 µg/mL; with K. pneumoniae 13 it was 0.05 µg/mL; in the data set on M. lacunata P-7102 it was 3.13 µg/mL; in the data set on P. rettgeri IFO 3850 it was 0.05 µg/mL. For the same compound, the MIC was 0.025 µg/mL in the data set with S. aureus 50774; 0.0125 µg/mL in the data set on S. aureus 80; 0.025 µg/mL in the data set with S. aureus Smith; 0.0125 µg/mL in the data set with S. epidermidis 8; 0.05 µg/mL with S. pyogenes A65. The ED50 in data set [2] was 0.267 mg/kg.

Regarding `Cl.NCC1CCN(c2nc3c(cc2F)c(=O)c(C(=O)O)cn3C2CC2)C1` (stereo not drawn) [Compound B, 7-(3-aminomethyl-1-pyrrolidinyl)-1-cyclopropyl-6-fluoro-1,4-dihydro-4-oxo-1,8-naphthyridine-3-carboxylic acid hydrochloride, reference compound], the MIC with E. coli P-5101 is 0.025 µg/mL; with E. coli P-51208 it was 3.13 µg/mL; in the data set on E. coli P-51209, 3.13 µg/mL; with K. pneumoniae 13, 0.1 µg/mL; in the data set on M. lacunata P-7102, 12.5 µg/mL; in the data set on P. rettgeri IFO 3850 it was 0.1 µg/mL. Also, the MIC in the data set with S. aureus 50774 was 0.025 µg/mL; with S. aureus 80 it was 0.05 µg/mL; in the data set on S. aureus Smith, 0.05 µg/mL; in the data set on S. epidermidis 8 it was 0.025 µg/mL; in the data set on S. pyogenes A65, 0.05 µg/mL. Also, the ED50 in data set [1] was 0.701 mg/kg; in [2], 0.601 mg/kg.

As to `CCn1cc(C(=O)O)c(=O)c2cc(F)c(N3CCC(CN)C3)nc21.Cl` (stereo not drawn) [Compound A, 7-(3-aminomethyl-1-pyrrolidinyl)-1-ethyl-6-fluoro-1,4-dihydro-4-oxo-1,8-naphthyridine-3-carboxylic acid hydrochloride, reference compound], the MIC in the data set on E. coli P-5101 was 0.39 µg/mL; with E. coli P-51208 it was 6.25 µg/mL; in the data set with E. coli P-51209, 12.5 µg/mL; in the data set on K. pneumoniae 13, 0.39 µg/mL; with M. lacunata P-7102, 50 µg/mL; in the data set with P. rettgeri IFO 3850, 0.78 µg/mL. In addition, the MIC is 0.2 µg/mL with S. aureus 50774; 0.39 µg/mL in the data set with S. aureus 80; 0.1 µg/mL with S. aureus Smith; 0.1 µg/mL in the data set with S. epidermidis 8; 0.39 µg/mL in the data set on S. pyogenes A65. The figures for the ED50 in data set [1] and in data set [2] were 2.79 mg/kg and 3.75 mg/kg, respectively.

Regarding `CNC[C@@H]1CN(c2nc3c(cc2F)c(=O)c(C(=O)O)cn3C2CC2)C[C@@H]1F` (relative stereo) [3-cis, 1-cyclopropyl-6-fluoro-7-(cis-4-fluoro-3-methylaminomethyl-1-pyrrolidinyl)-1,4-dihydro-4-oxo-1,8-naphthyridine-3-carboxylic acid], the concentration in solution in the data set “Solubility in water” (solubility) came to 789 µg/mL (≈ 2090 µM).

For the compound `Cl.NC[C@@H]1CN(c2nc3c(cc2F)c(=O)c(C(=O)O)cn3C2CC2)C[C@@H]1F` (relative stereo) [Compound No. 1-cis.HCl, 7-(cis-3-aminomethyl-4-fluoro-1-pyrrolidinyl)-1-cyclopropyl-6-fluoro-1,4-dihydro-4-oxo-1,8-naphthyridine-3-carboxylic acid hydrochloride], the MIC in the data set with E. coli P-5101 is 0.0125 µg/mL; in the data set on E. coli P-51208, 0.78 µg/mL; in the data set on E. coli P-51209, 0.78 µg/mL; in the data set with K. pneumoniae 13 it was 0.05 µg/mL; in the data set on M. lacunata P-7102 it was 6.25 µg/mL; in the data set on P. rettgeri IFO 3850, 0.05 µg/mL. Besides, the MIC in the data set with S. aureus 50774 is 0.025 µg/mL; in the data set with S. aureus 80, 0.025 µg/mL; with S. aureus Smith, 0.025 µg/mL; in the data set with S. epidermidis 8, 0.0125 µg/mL; with S. pyogenes A65 it was 0.0125 µg/mL. The values for the ED50 in data set [1] and in data set [2] were 0.274 mg/kg and 0.365 mg/kg, respectively.

Values taken from patent publication US4738968A, “1,8-naphthyridine derivatives useful as anti-bacterial agents” (Dainippon Pharmaceutical Co., Ltd., priority 1985, dated 1988).
